Experimental data taken from US20240041042A1, “1-(PYRIDYL)-5-AZINYLPYRAZOLE DERIVATIVES, AND THEIR USE FOR CONTROL OF UNDESIRED PLANT GROWTH” (Bayer Aktiengesellschaft, priority 2020, published 2024).

Columns and labels:
Format in all cases: in vivo
Avena fatua (AVEFA) [1] = test: Pre-emergence herbicidal action against AVEFA; conditions: visual scoring after about 3 weeks vs untreated controls
Method in brief: (§1)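 Seeds sown in pots and covered with soil; WP or EC formulations sprayed onto the soil surface at 600 l/ha water with 0.5% additive, at 320 g/ha or lower. Greenhouse growth for about 3 weeks, then visual scoring as % effect against untreated controls (100% = plants dead).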

Lolium rigidum (LOLRI) [2] = test: Pre-emergence herbicidal action against LOLRI; conditions: dosage 320 g/ha
Method in brief: as §1

Zea mays (ZEAMX) [3] = conditions: pre-emergence, 80 g/ha, crop plant compatibility, in comparison to untreated controls
Method in brief: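 Crop injury rated visually in percent against untreated plants roughly 3 weeks after treatment (0% no effect, 100% plants dead). Compounds, as WP or EC with 0.5% additive in 600 l/ha water, were applied to the covering soil right after sowing; greenhouse growth. Suffixes a, b, c denote different dosages.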

[4] = test system: Verconica persica (VERPE); test: Post-emergence herbicidal action against VERPE
Method in brief: (§2)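 Greenhouse plants sprayed at the one-leaf stage, 2–3 weeks after sowing, with WP or EC formulations plus 0.5% additive at 600 l/ha water. Activity rated visually after about 3 weeks versus untreated controls (100% = dead, 0% = like control), at 320 g/ha or lower.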

[5] = test system: Alopecurus myosuroides (ALOMY); test: Post-emergence herbicidal action against ALOMY; conditions: visual rating about 3 weeks after treatment vs untreated controls (100% = plants have died, 0% = like control plants)
Method in brief: as §2

Viola tricolor (VIOTR) [6] = test: Post-emergence herbicidal action against VIOTR
Method in brief: as §2

Setaria viridis (SETVI) [7] = test: Post-emergence herbicidal action against SETVI; conditions: dosage 320 g/ha
Method in brief: as §2

[8] = test system: Pharbitis purpurea (PHBPU); test: Pre-emergence herbicidal action against PHBPU
Method in brief: as §1

Setaria viridis (SETVI) [9] = test: Pre-emergence herbicidal action against SETVI; conditions: dosage 320 g/ha
Method in brief: as §1

[10] = test system: Echinochloa crus-galli (ECHCG); test: Post-emergence herbicidal action against ECHCG
Method in brief: as §2

[11] = test system: Alopecurus myosuroides (ALOMY); test: Pre-emergence herbicidal action against ALOMY; conditions: scored visually after about 3 weeks, 100% = plants have died
Method in brief: as §1

[12] = test system: Verconica persica (VERPE); test: Pre-emergence herbicidal action against VERPE; conditions: dosage 320 g/ha
Method in brief: as §1

[13] = test system: Pharbitis purpurea (PHBPU); test: Post-emergence herbicidal action against PHBPU
Method in brief: as §2

Viola tricolor (VIOTR) [14] = test: Pre-emergence herbicidal action against VIOTR
Method in brief: as §1

[15] = test system: Amaranthus retroflexus (AMARE); test: Pre-emergence herbicidal action against AMARE; conditions: visual scoring after about 3 weeks vs untreated controls
Method in brief: as §1

[16] = test system: Amaranthus retroflexus (AMARE); test: Post-emergence herbicidal action against AMARE
Method in brief: as §2

Lolium rigidum (LOLRI) [17] = test: Post-emergence herbicidal action against LOLRI; conditions: dosage 320 g/ha
Method in brief: as §2

[18] = test system: Abutilon theophrasti (ABUTH); test: Post-emergence herbicidal action against ABUTH; conditions: visual rating about 3 weeks after treatment vs untreated controls (100% = plants have died, 0% = like control plants)
Method in brief: as §2

[19] = test system: Matricaria inodora (MATIN); test: Pre-emergence herbicidal action against MATIN
Method in brief: as §1

[20] = test system: Abutilon theophrasti (ABUTH); test: Pre-emergence herbicidal action against ABUTH; conditions: 100% = plants have died
Method in brief: as §1

[21] = test system: Echinochloa crus-galli (ECHCG); test: Pre-emergence herbicidal action against ECHCG
Method in brief: as §1

[22] = test system: Polygonum convolvulus (POLCO); test: Pre-emergence herbicidal action against POLCO
Method in brief: as §1

Oryza sativa (ORYSA) = conditions: crop plant compatibility, 80 g/ha, effect in comparison to untreated controls
Method in brief: (§3)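 One-leaf-stage crops (2–3 wk post-sowing, sandy loam, greenhouse) sprayed on green parts; 0.5% additive, 600 l/ha water. Rated by eye ~3 wk later, % vs untreated; suffixes a/b/c mark different dosages.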

Zea mays (ZEAMX) [23] = conditions: crop plant compatibility, 80 g/ha, effect vs untreated controls
Method in brief: as §3

Avena fatua (AVEFA) [24] = test: Post-emergence herbicidal action against AVEFA; conditions: 320 g/ha, visual rating about 3 weeks after treatment
Method in brief: as §2

[25] = test system: Polygonum convolvulus (POLCO); test: Post-emergence herbicidal action against POLCO
Method in brief: as §2

[26] = 80 g/ha, visual rating about 3 weeks after treatment vs untreated controls (100% = plants have died, 0% = like control plants)
[27] = 320 g/ha, visual rating about 3 weeks after treatment
[28] = Dosage column 320 g/ha (title prints 3200 g/ha), scored visually after about 3 weeks

| SMILES | Pre-emergence action against AVEFA in % (Avena fatua (AVEFA) [1]; 320 g/ha) [%] | Pre-emergence action against LOLRI in % (Lolium rigidum (LOLRI) [2]) [%] | Pre-emergence action against ZEAMX in % (Zea mays (ZEAMX) [3]) [%] | Post-emergence action against VERPE in % ([4]; 320 g/ha, VERPE) [%] | Post-emergence action against VERPE in % ([4]; dosage 80 g/ha) [%] | Post-emergence action against ALOMY in % ([5]; 320 g/ha) [%] | Post-emergence action against VIOTR in % (Viola tricolor (VIOTR) [6]; 320 g/ha) [%] | Post-emergence action against SETVI in % (Setaria viridis (SETVI) [7]) [%] | Pre-emergence action against PHBPU in % ([8]; dosage 320 g/ha) [%] | Pre-emergence action against SETVI in % (Setaria viridis (SETVI) [9]) [%] | Post-emergence action against ECHCG in % ([10]; dosage 80 g/ha) [%] | Post-emergence action against ECHCG in % ([10]; dosage 320 g/ha) [%] | Pre-emergence action against ALOMY ([11]; 320 g/ha) [%] | Pre-emergence action against VIOTR in % (Viola tricolor (VIOTR) [14]; 320 g/ha, Viola tricolor) [%] | Pre-emergence action against VIOTR in % (Viola tricolor (VIOTR) [14]; dosage 80 g/ha) [%] | Pre-emergence action against AMARE in % ([15]; 320 g/ha) [%] | Post-emergence action against AMARE in % [16, 26] [%] | Post-emergence action against AMARE in % [16, 27] [%] | Post-emergence action against LOLRI in % (Lolium rigidum (LOLRI) [17]) [%] | Post-emergence action against ABUTH in % ([18]; 80 g/ha) [%] | further results |
| --- | --- | --- | --- | --- | --- | --- | --- | --- | --- | --- | --- | --- | --- | --- | --- | --- | --- | --- | --- | --- | --- |
| CCOC(=O)COc1nn(-c2nc(F)ccc2F)c(-c2ccc(F)nc2)c1Br [Example I-330] | 90 | 90 | 20 | 80 | 80 | 90 | 80 | 80 | 90 | 100 | 80 | 90 | 100 | 100 | 90 | 100 | 80 | 80 | 90 | 80 | Pre-emergence action against AVEFA in % (Avena fatua (AVEFA) [1]; 80 g/ha): 80%; Post-emergence action against ALOMY in % ([5]; 80 g/ha): 80%; Pre-emergence action against VERPE in % [12]: 90%; Post-emergence action against PHBPU in % ([13]; dosage 80 g/ha): 80%; Post-emergence action against PHBPU in % ([13]; dosage 320 g/ha): 90%; Post-emergence action against ABUTH in % ([18]; 320 g/ha): 80%; Pre-emergence action against MATIN in % ([19]; dosage 80 g/ha): 80%; Pre-emergence action against MATIN in % ([19]; dosage 320 g/ha): 90%; Pre-emergence action against ABUTH [20, 28]: 100%; Pre-emergence action against ECHCG in % ([21]; dosage 320 g/ha): 100%; Pre-emergence action against POLCO in % ([22]; dosage 320 g/ha): 90%; Post-emergence action against ORYSA in % (Oryza sativa (ORYSA)): 10%; Post-emergence action against ZEAMX in % (Zea mays (ZEAMX) [23]): 10%; Post-emergence action against AVEFA in % (Avena fatua (AVEFA) [24]): 80% |
| O=C(O)COc1nn(-c2ncccc2C(F)(F)F)c(-c2ccc(F)nc2)c1Cl [Example I-327] | 80 | 100 | 20 | 90 | 80 | 100 | 90 | 90 | 80 | 100 | 80 | 90 | 100 | 100 | 100 | 100 | 90 | 90 | 90 | 80 | Post-emergence action against VIOTR in % (Viola tricolor (VIOTR) [6]; 80 g/ha): 90%; Post-emergence action against POLCO in % ([25]; dosage 320 g/ha): 80%; Post-emergence action against ABUTH in % ([18]; 320 g/ha): 90%; Pre-emergence action against MATIN in % ([19]; dosage 80 g/ha): 80%; Pre-emergence action against MATIN in % ([19]; dosage 320 g/ha): 80%; Pre-emergence action against ABUTH ([20]; 80 g/ha, scored visually after about 3 weeks vs untreated controls, 0% = like control plants): 100%; Pre-emergence action against ABUTH [20, 28]: 100%; Pre-emergence action against POLCO in % ([22]; dosage 320 g/ha): 90%; Post-emergence action against ORYSA in % (Oryza sativa (ORYSA)): 0%; Post-emergence action against ZEAMX in % (Zea mays (ZEAMX) [23]): 0% |
| CCOC(=O)COc1nn(-c2nc(F)ccc2F)c(-c2ccc(F)nc2)c1Cl [Example I-315] | 90 | 100 | 10 | 90 | 80 | 90 | 80 | 80 | 90 | 100 | 90 | 100 | 100 | 100 | 90 | 90 | 80 | 80 | 90 | 80 | Post-emergence action against ALOMY in % ([5]; 80 g/ha): 80%; Pre-emergence action against PHBPU in % ([8]; dosage 80 g/ha): 90%; Pre-emergence action against ALOMY ([11]; 80 g/ha): 100%; Pre-emergence action against VERPE in % [12]: 100%; Post-emergence action against PHBPU in % ([13]; dosage 80 g/ha): 80%; Post-emergence action against PHBPU in % ([13]; dosage 320 g/ha): 80%; Pre-emergence action against AMARE in % ([15]; 80 g/ha): 90%; Post-emergence action against POLCO in % ([25]; dosage 80 g/ha): 80%; Post-emergence action against POLCO in % ([25]; dosage 320 g/ha): 80%; Post-emergence action against ABUTH in % ([18]; 320 g/ha): 80%; Pre-emergence action against MATIN in % ([19]; dosage 80 g/ha): 80%; Pre-emergence action against MATIN in % ([19]; dosage 320 g/ha): 90%; Pre-emergence action against ABUTH [20, 28]: 80%; Pre-emergence action against ECHCG in % ([21]; dosage 80 g/ha): 90%; Pre-emergence action against ECHCG in % ([21]; dosage 320 g/ha): 100%; Pre-emergence action against POLCO in % ([22]; dosage 80 g/ha): 80%; Pre-emergence action against POLCO in % ([22]; dosage 320 g/ha): 90%; Post-emergence action against ORYSA in % (Oryza sativa (ORYSA)): 20%; Post-emergence action against ZEAMX in % (Zea mays (ZEAMX) [23]): 20%; Post-emergence action against AVEFA in % (Avena fatua (AVEFA) [24]): 80% |
